{"source": "patent US20260109721A1", "about": "“IONIZABLE CATIONIC LIPIDS INCORPORATING SILICON: SYNTHESIS AND LNP FORMULATION” (priority 2023, published 2026)", "data": [{"assay": "Encapsulation efficiency of loaded LNPs, RiboGreen RNA assay (Method A)", "format": "physicochemical", "settings": "not given", "procedure": "(§1) The synthesized lipids were tested in term of in vitro transfection efficacy and toxicity on HeLa cells. In order to perform the mentioned biological tests, appropriate LNPs had to be formulated from the synthesized lipids. The formulation technique was different in Method A and B. The particle size, polydispersity index (PDI) and zeta potential of resulting LNPs were determined by means of Dynamic Light Scattering technique (DLS). Prior to biological testing the encapsulation efficiency (EE) of the loaded LNPs was determined by using RiboGreen RNA assay. In case of Method A Luc mRNA while in case of Method B GFP mRNA was transfected into the cells. In parallel with the transfection experiments, toxicity of the investigated LNPs was determined, in case of Method A resazurin assay while in case of Method B MTT assay was used. Additionally, the toxicity of the lipids was investigated on HepG2 cells and IC50 values were determined.\n(§2) • 1. Preparation of sample stock solutions: In the top row of the 96-well plate (Row A in the plate), add 297 μL of TE buffer pH 7.4 (see Table 1) to a single well for each sample plus a single well for a PBS blank using a multichannel pipette.\n(§3) • 2. Add 3 μL of sample (at 0.5 mg/ml) to these wells for a final volume of 300 μL. Add 3 μL of PBS to the blank well. Pipette to mix. This is your stock solution for each sample. The final RNA concentration of these stock solutions should be approximately 4-7 μg/mL. • 3. mRNA-LNP sample setup: • a. Add 50 μL of TE buffer pH 7.5 to the two wells directly below each sample (Rows B and C in the plate). • b. Add 50 μL of sample stock solution from Row A into the wells in Rows B and C (this assay is run in duplicate. All liquid handling should be done using a multichannel pipette). • c. Add 50 μL of Triton buffer to the wells in Rows D and E (in the plate) below each sample. • d. Add 50 μL of sample stock solution from Row A into the wells in Rows D and E. • 4. RiboGreen RNA standard curve setup: Dilute the RNA standard to produce an RNA stock at a final concentration of 20 μg/mL in TE buffer pH 7.4. The final volume should be 150 μL. Set up a standard curve (in duplicate) as using the RNA stock (20 μg/mL siRNA), TE buffer pH 7.5, and Triton X-100 buffer according the Table 2 and Table 3 below.\n(§4) • 5. Once samples and standard curve are plated, incubate the plate at 37° C. for 10 min to lyse mRNA-LNP in the presence of Triton X-100 buffer. • 6. Meanwhile, prepare RiboGreen Solution: Sum the total number of sample wells and standard curve wells. Add three to this number, and multiply the total by 100. This is the total volume, in μL, of RiboGreen Solution needed for this assay. In a 15 mL RNAse-free Falcon tube, dilute the RiboGreen Reagent 1:100 into TE buffer pH 7.5 to the total volume calculated. • 7. Addition of RiboGreen Solution and sample readings: Remove a 96-well plate from 37° C. incubator; let it cool to room temperature as RiboGreen binding is somewhat temperature dependent. Add 100 μL of RiboGreen Solution to each well. Pop any air bubbles with a needle. Read using fluorescent plate reader (excitation=480, emission=525). • 8. Sample analysis: Use the data generated by the RiboGreen standard curve to calculate the concentration of mRNA. Transfection Efficiency with Luciferase-mRNA (Method A)", "units": {"EE (%)": "%"}, "values": [{"compound": "CCCCC/C=C\\C/C=C\\CCCCCCCCO[Si](C)(C)OC(CCCCCCC/C=C\\CCCCCCCC)OCCCN(C)C", "note": "(stereo not shown) [Example 81, (17Z,20Z)-5-((Z)-heptadec-8-en-1-yl)-N,N,7,7-tetramethyl-4,6,8-trioxa-7-silahexacosa-17,20-dien-1-amine]", "EE (%)": 86}, {"compound": "CCCCC/C=C\\C/C=C\\CCCCCCCCOC(CCCCCCC/C=C\\C/C=C\\CCCCC)O[Si](C)(C)OCCCCCCN(C)C", "note": "(stereo not shown) [Example 79, (20Z,23Z)-10-((8Z,11Z)-heptadeca-8,11-dien-1-yl)-N,N,8,8-tetramethyl-7,9,11-trioxa-8-silanonacosa-20,23-dien-1-amine]", "EE (%)": 83}]}, {"assay": "Encapsulation efficiency of loaded LNPs, RiboGreen RNA assay (Method A)", "format": "physicochemical", "settings": "encapsulation efficiency of mRNA-loaded LNP, Method A, RiboGreen", "procedure": "as §1, §2, §3, §4", "units": {"EE (%)": "%"}, "values": [{"compound": "CCCCCCCC/C=C\\CCCCCCCCOC(=O)C(C)(C)CCC(OCCCCCCCC/C=C\\CCCCCCCC)O[Si](C)(C)OCCCCCCN(CCO)CCO", "note": "(stereo not shown) [Example 94, (Z)-octadec-9-en-1-yl 1-hydroxy-3-(2-hydroxyethyl)-11,11,16,16-tetramethyl-13-(((Z)-octadec-9-en-1-yl)oxy)-10,12-dioxa-3-aza-11-silaheptadecan-17-oate]", "EE (%)": 86}, {"compound": "CCCCCCCC/C=C\\CCCCCCCCOC(=O)C(C)(C)CC(OCCCCCCCC/C=C\\CCCCCCCC)O[Si](C)(C)OCCCCCCN(C)CCO", "note": "(stereo not shown) [Example 93, (Z)-octadec-9-en-1-yl 1-hydroxy-3,11,11,15,15-pentamethyl-13-(((Z)-octadec-9-en-1-yl)oxy)-10,12-dioxa-3-aza-11-silahexadecan-16-oate]", "EE (%)": 88}, {"compound": "C#CCN(C)CCCCCCO[Si](C)(C)OC(CC(C)(C)C(=O)OCCCCCCCC/C=C\\CCCCCCCC)OCCCCCCCC/C=C\\CCCCCCCC", "note": "(stereo not shown) [Example 97, (Z)-octadec-9-en-1-yl 4,12,12,16,16-pentamethyl-14-(((Z)-octadec-9-en-1-yl)oxy)-11,13-dioxa-4-aza-12-silaheptadec-1-yn-17-oate]", "EE (%)": 86}, {"compound": "CCCCC/C=C\\C/C=C\\CCCCCCCCOC(CCCCCCCCCCCCCCC)O[Si](C)(C)OCCCCCCN(CCO)CCO", "note": "(stereo not shown) [Example 43, (23Z,26Z)-3-(2-hydroxyethyl)-11,11-dimethyl-13-pentadecyl-10,12,14-trioxa-3-aza-11-siladotriaconta-23,26-dien-1-ol]", "EE (%)": 83}, {"compound": "CCCCCCCCCCCOC(=O)CCCCCN(CCO)CCCCCCCC(=O)OC(CCCCCCCC)CCCCCCCC", "note": "[SM-102, reference compound]", "EE (%)": 88}, {"compound": "CCCCC/C=C\\C/C=C\\CCCCCCCCOC(CCCCCN(C)CC(O)CO)O[Si](C)(C)OCCCCCCCC/C=C\\C/C=C\\CCCCC", "note": "(stereo not shown) [Example 66, (22Z,25Z)-4,12,12-trimethyl-10-(((9Z,12Z)-octadeca-9,12-dien-1-yl)oxy)-11,13-dioxa-4-aza-12-silahentriaconta-22,25-diene-1,2-diol]", "EE (%)": 82}, {"compound": "CCCCCCCC/C=C\\CCCCCCCCOC(CCCCCCCCCCCCCCC)O[Si](C)(C)OCCCCCCN(CCO)CCO", "note": "(stereo not shown) [Example 41, (Z)-3-(2-hydroxyethyl)-11,11-dimethyl-13-pentadecyl-10,12,14-trioxa-3-aza-11-siladotriacont-23-en-1-ol]", "EE (%)": 78}, {"compound": "CCCCC/C=C\\C/C=C\\CCCCCCCCOC(CCCCCCC/C=C\\CCCCCCCC)O[Si](C)(C)OCCCCCCN(CCO)CCO", "note": "(stereo not shown) [Example 46, (23Z,26Z)-13-((Z)-heptadec-8-en-1-yl)-3-(2-hydroxyethyl)-11,11-dimethyl-10,12,14-trioxa-3-aza-11-siladotriaconta-23,26-dien-1-ol]", "EE (%)": 81}, {"compound": "CCCCC/C=C\\C/C=C\\CCCCCCCCOC(CCCCCCC/C=C\\C/C=C\\CCCCC)O[Si](C)(C)OCCCCCCN1CCCCC1CO", "note": "(stereo not shown) [Example 64, (1-((20Z,23Z)-10-((8Z,11Z)-heptadeca-8,11-dien-1-yl)-8,8-dimethyl-7,9,11-trioxa-8-silanonacosa-20,23-dien-1-yl)piperidin-2-yl)methanol]", "EE (%)": 85}, {"compound": "CCCCC/C=C\\C/C=C\\CCCCCCCC(OCCCCCCCCCCCCCCCC)O[Si](C)(C)OCCCCCCN(CCO)CCO", "note": "(stereo not shown) [Example 44, 13-((8Z,11Z)-heptadeca-8,11-dien-1-yl)-3-(2-hydroxyethyl)-11,11-dimethyl-10,12,14-trioxa-3-aza-11-silatriacontan-1-ol]", "EE (%)": 82}, {"compound": "CCCCCCCC/C=C\\CCCCCCCC(OCC(CCCCCC)CCCCCCCC)O[Si](C)(C)OCCCCCCN(CCO)CCO", "note": "(stereo not shown) [Example 50, (Z)-13-(heptadec-8-en-1-yl)-16-hexyl-3-(2-hydroxyethyl)-11,11-dimethyl-10,12,14-trioxa-3-aza-11-silatetracosan-1-ol]", "EE (%)": 86}, {"compound": "CCCCC/C=C\\C/C=C\\CCCCCCCC(OCCCCCCCC/C=C\\CCCCCCCC)O[Si](C)(C)OCCCCCCN(CCO)CCO", "note": "(stereo not shown) [Example 45, (Z)-13-((8Z,11Z)-heptadeca-8,11-dien-1-yl)-3-(2-hydroxyethyl)-11,11-dimethyl-10,12,14-trioxa-3-aza-11-siladotriacont-23-en-1-ol]", "EE (%)": 82}, {"compound": "CCCCCCCC/C=C\\CCCCCCCCOC(=O)C(C)(C)CC(OCCCCCCCC/C=C\\CCCCCCCC)O[Si](C)(C)OCCCCCCN1CCCCC1", "note": "(stereo not shown) [Example 87, (Z)-octadec-9-en-1-yl 4-((dimethyl((6-(piperidin-1-yl)hexyl)oxy)silyl)oxy)-2,2-dimethyl-4-(((Z)-octadec-9-en-1-yl)oxy)butanoate]", "EE (%)": 89}, {"compound": "CCCCCCCC/C=C\\CCCCCCCCOC(=O)C(C)(C)CC(OCCCCCCCC/C=C\\CCCCCCCC)O[Si](C)(C)OCCCCCCN1CCOCC1", "note": "(stereo not shown) [Example 85, (Z)-octadec-9-en-1-yl 4-((dimethyl((6-morpholinohexyl)oxy)silyl)oxy)-2,2-dimethyl-4-(((Z)-octadec-9-en-1-yl)oxy)butanoate]", "EE (%)": 90}, {"compound": "CCCCC/C=C\\C/C=C\\CCCCCCCCOC(CCCCCCC/C=C\\C/C=C\\CCCCC)O[Si](C)(C)OCCCCCCN(CCCCO)CCCCO", "note": "(stereo not shown) [Example 62, (25Z,28Z)-15-((8Z,11Z)-heptadeca-8,11-dien-1-yl)-5-(4-hydroxybutyl)-13,13-dimethyl-12,14,16-trioxa-5-aza-13-silatetratriaconta-25,28-dien-1-ol]", "EE (%)": 84}, {"compound": "CCCCCCCC/C=C\\CCCCCCCC(OCC(CCCCCCCC)SCCCCC)O[Si](C)(C)OCCCCCCN(CCO)CCO", "note": "(stereo not shown) [Example 72, (Z)-13-(heptadec-8-en-1-yl)-3-(2-hydroxyethyl)-11,11-dimethyl-16-octyl-10,12,14-trioxa-17-thia-3-aza-11-siladocosan-1-ol]", "EE (%)": 87}, {"compound": "CCCCC/C=C\\C/C=C\\CCCCCCCCOC(CCCCCCC/C=C\\C/C=C\\CCCCC)O[Si](C)(C)OCCCCCCN1CCN(CCCCCCO[Si](C)(C)OC(CCCCCCC/C=C\\C/C=C\\CCCCC)OCCCCCCCC/C=C\\C/C=C\\CCCCC)CC1", "note": "(stereo not shown) [Example 70, 1,4-bis((20Z,23Z)-10-((8Z,11Z)-heptadeca-8,11-dien-1-yl)-8,8-dimethyl-7,9,11-trioxa-8-silanonacosa-20,23-dien-1-yl)piperazine]", "EE (%)": 81}, {"compound": "CCCCC/C=C\\C/C=C\\CCCCCCCCOC(CCCCCCC/C=C\\C/C=C\\CCCCC)O[Si](C)(C)OCCCCCCN(C)CCCCO", "note": "(stereo not shown) [Example 60, (25Z,28Z)-15-((8Z,11Z)-heptadeca-8,11-dien-1-yl)-5,13,13-trimethyl-12,14,16-trioxa-5-aza-13-silatetratriaconta-25,28-dien-1-ol]", "EE (%)": 84}, {"compound": "CCCCCCCC/C=C\\CCCCCCCCOC(=O)C(C)(C)CC(OCCCCCCCC/C=C\\CCCCCCCC)O[Si](C)(C)OCCCCCCN(CCCCO)CCCCO", "note": "(stereo not shown) [Example 86, (Z)-octadec-9-en-1-yl 18-hydroxy-14-(4-hydroxybutyl)-2,2,6,6-tetramethyl-4-(((Z)-octadec-9-en-1-yl)oxy)-5,7-dioxa-14-aza-6-silaoctadecanoate]", "EE (%)": 87}, {"compound": "CCCCC/C=C\\C/C=C\\CCCCCCCCOC(CCCCCCC/C=C\\C/C=C\\CCCCC)O[Si](C)(C)OCCCCCCN(C)[C@H](CO)Cc1ccccc1", "note": "(stereo partly drawn) [Example 77, (2S,23Z,26Z)-2-benzyl-13-((8Z,11Z)-heptadeca-8,11-dien-1-yl)-3,11,11-trimethyl-10,12,14-trioxa-3-aza-11-siladotriaconta-23,26-dien-1-ol]", "EE (%)": 85}]}]}
